The source of these data is patent US20220081422A1 (Janssen Biotech, Inc., priority 2019, published 2022).

In one experiment the target is T1, human DHODH (Homo sapiens, UniProt Q02127).
T1 construct: purchased Proteros PR-0044
In words: DHODH enzymatic assay (DCIP absorbance, end-point). Type of experiment: biochemical. The settings on record: purified human DHODH, DCIP as final electron acceptor, end-point mode; read-out: hDHODH IC50. Here is the method: In vitro Assay: DHODH enzymatic assay
To detect DHODH enzyme activities, dichloroindophenol (DCIP) is added as the final electron acceptor in the assay. DCIP can accept electrons from the reduced coenzyme Q generated in the assay, or from dihydroorotate (DHO) via FMN by binding presumably to the ubiquinone pocket. […] The assay buffer contained […], pH 7.5, 150 mM NaCl, 0.5 mM EDTA, and 0.1% Triton X-100 in MilliQ water. Substrate consisting of 20 mM DHO, 5 mM CoQ6, and 1 mM DCIP in assay buffer, initiates the reaction. […] Absorbance measurements were obtained using the BMG Phera Star plate-reading spectrophotometer. Purified human DHODH was purchased from Proteros (cat. No. PR-0044). Chemicals were purchased from Sigma-Aldrich, Teknova, and Avanti Polar Lipids. Liquid handling was performed using Labcyte Echo and Formulatrix Tempest.

In the next experiment the test system is MOLM-13 cells. In words: MOLM-13 cellular assay (CellTiter-Glo cell viability). Type of experiment: cell-based. The conditions noted are these: 72 hours exposure, cell viability by CellTiter-Glo. Here is the method:
In Vitro Assay: MOLM-13 Cellular Assay
MOLM-13 cells were obtained from DSMZ and were maintained in RPMI 1640+Glutamax+25 mM HEPES (Invitrogen, catalog number 72400) supplemented with 10% heat inactivated fetal bovine serum (FBS; Invitrogen, catalog number 16140). The day prior to assay set-up, cells were pelleted, resuspended in fresh media, counted, and cells were plated at 0.4×10^6 cell/mL in a T150 flask. On the day of the assay, cells were pelleted, resuspend in fresh media, counted and seeded at 5,000 cells/well in white opaque 96-well tissue culture treated microplates (Perkin Elmer, catalog number 6005680). Cells were exposed to different concentrations of test compounds at 37° C., 5% CO2 for 72 hours immediately after seeding. Cell viability was acquired on a Perkin Elmer Envision 2104 multilabel reader using the CellTiter-Glo assay (Promega) according to the manufacturer's instructions.
In general terms: Cellular ATP, detected with luciferase, serves as a proxy for viable cell number.

T1 sequence (Q02127 whole entry): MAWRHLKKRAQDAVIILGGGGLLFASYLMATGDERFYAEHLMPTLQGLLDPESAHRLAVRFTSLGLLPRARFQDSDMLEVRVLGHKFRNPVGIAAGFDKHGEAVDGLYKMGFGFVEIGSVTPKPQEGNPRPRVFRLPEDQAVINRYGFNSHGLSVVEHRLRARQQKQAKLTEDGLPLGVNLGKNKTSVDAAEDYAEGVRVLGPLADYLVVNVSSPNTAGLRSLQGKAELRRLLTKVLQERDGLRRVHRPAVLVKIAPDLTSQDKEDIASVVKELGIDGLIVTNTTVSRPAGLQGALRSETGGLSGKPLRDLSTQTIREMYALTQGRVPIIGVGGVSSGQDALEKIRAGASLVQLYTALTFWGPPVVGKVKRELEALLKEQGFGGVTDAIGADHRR

On to `C=C(C1CN(c2c(F)cccc2Cl)C(=O)c2ccc(-n3nc(CO)n(CC)c3=O)cc21)C(F)(F)F` (racemic) [Example 73, Racemic 2-(2-Chloro-6-fluorophenyl)-6-(4-ethyl-3-(hydroxymethyl)-5-oxo-4,5-dihydro-1H-1,2,4-triazol-1-yl)-4-(3,3,3-trifluoroprop-1-en-2-yl)-3,4-dihydroisoquinolin-1(2H)-one], for which the IC50 (in general, the point on the concentration scale where inhibition reaches its midpoint) came to 8 nM on human DHODH and 12.2 nM in the experiment on MOLM-13 cells (Homo sapiens, MOLM-13, 72 h).
Take `CCC(C)C1CN(c2c(F)cccc2Cl)C(=O)c2cc(F)c(-n3nc(CO)n(CC)c3=O)cc21` (single isomer, unassigned) [Example 70, (S*)-4-((RS)-sec-butyl)-2-(2-chloro-6-fluorophenyl)-6-(4-ethyl-3-(hydroxymethyl)-5-oxo-4,5-dihydro-1H-1,2,4-triazol-1-yl)-7-fluoro-3,4-dihydroisoquinolin-1(2H)-one]: the IC50 at human DHODH was found to be 6 nM; in the experiment on MOLM-13 cells (Homo sapiens, MOLM-13, 72 h), 14.5 nM.
The like results for `C=C(C)C1CN(c2cc(C)ccc2F)C(=O)c2cc(F)c(-n3nc(CO)n(CC)c3=O)cc21` (racemic) [Example 38, Racemic-6-(4-ethyl-3-(hydroxymethyl)-5-oxo-4,5-dihydro-1H-1,2,4-triazol-1-yl)-7-fluoro-2-(2-fluoro-5-methylphenyl)-4-(prop-1-en-2-yl)-3,4-dihydroisoquinolin-1(2H)-one] were, in that order, 30 nM and 36.3 nM.
As to `C=C(C)[C@@H]1CN(c2c(C)cc(C)nc2Cl)C(=O)c2cc(F)c(-n3nc(CO)n(CC)c3=O)cc21` (single isomer, unassigned; atropisomer 1) [Example 58, Atropisomer 1, (S*)-2-(2-Chloro-4,6-dimethylpyridin-3-yl)-6-(4-ethyl-3-(hydroxymethyl)-5-oxo-4,5-dihydro-1H-1,2,4-triazol-1-yl)-7-fluoro-4-(prop-1-en-2-yl)-3,4-dihydroisoquinolin-1(2H)-one], the IC50 on human DHODH came out at 4 nM; with MOLM-13 cells it was 2.93 nM.
For `CCn1c(CO)nn(-c2ccc3c(c2)C(C(C)C)CN(c2cccc(F)c2)C3=O)c1=O` (racemic) [Example 10, Racemic-6-(4-Ethyl-3-(hydroxymethyl)-5-oxo-4,5-dihydro-1H-1,2,4-triazol-1-yl)-2-(3-fluorophenyl)-4-isopropyl-3,4-dihydroisoquinolin-1(2H)-one], the IC50 on human DHODH was 190 nM; in the experiment with MOLM-13 cells (Homo sapiens, MOLM-13, 72 h), > 3 nM.
With `C=C(C)[C@H]1CN(c2c(C)cnc(OC)c2C)C(=O)c2cc(F)c(-n3nc(CO)n(CC)c3=O)cc21` (single isomer, unassigned; atropisomer 1) [Example 55, Atropisomer 1, (R *)-6-(4-Ethyl-3-(hydroxymethyl)-5-oxo-4,5-dihydro-1H-1,2,4-triazol-1-yl)-7-fluoro-2-(2-methoxy-3,5-dimethylpyridin-4-yl)-4-(prop-1-en-2-yl)-3,4-dihydroisoquinolin-1(2H)-one], the values for the IC50 on human DHODH and in the experiment on MOLM-13 cells were > 100 nM and 1160 nM, respectively.
As to `C=C(C)[C@H]1CN(c2c(C)cc(C)nc2Cl)C(=O)c2cc(F)c(-n3nc(CO)n(CC)c3=O)cc21` (single isomer, unassigned; atropisomer 2) [Example 61, Atropisomer 2, (R*)-2-(2-Chloro-4,6-dimethylpyridin-3-yl)-6-(4-ethyl-3-(hydroxymethyl)-5-oxo-4,5-dihydro-1H-1,2,4-triazol-1-yl)-7-fluoro-4-(prop-1-en-2-yl)-3,4-dihydroisoquinolin-1(2H)-one], the IC50 turned out to be 90 nM on human DHODH and 114 nM with MOLM-13 cells.
With `CCn1c(CO)nn(-c2cc3c(cc2F)C(=O)N(c2c(C)cnc(OC)c2Cl)CC3C(C)C)c1=O` (single isomer, unassigned) [Example 67, (R *)-2-(3-Chloro-2-methoxy-5-methylpyridin-4-yl)-6-(4-ethyl-3-(hydroxymethyl)-5-oxo-4,5-dihydro-1H-1,2,4-triazol-1-yl)-7-fluoro-4-isopropyl-3,4-dihydroisoquinolin-1(2H)-one], the values for the IC50 at human DHODH and in the experiment on MOLM-13 cells were > 100 nM and 351 nM, respectively.
As to `CC[C@@H](C)[C@H]1CN(c2c(F)cccc2Cl)C(=O)c2cc(F)c(-n3nc(CO)n(CC)c3=O)cc21` (relative stereo) [Example 72, (R*)-4-((R*)-sec-Butyl)-2-(2-chloro-6-fluorophenyl)-6-(4-ethyl-3-(hydroxymethyl)-5-oxo-4,5-dihydro-1H-1,2,4-triazol-1-yl)-7-fluoro-3,4-dihydroisoquinolin-1(2H)-one], the IC50 at human DHODH turned out to be 5 nM; with MOLM-13 cells (Homo sapiens, MOLM-13, 72 h) it was 6.57 nM.
Consider `C=C(C)C1CN(c2c(C)n[nH]c2Cl)C(=O)c2cc(F)c(-n3nc(CO)n(CC)c3=O)cc21` (single isomer, unassigned) [Example 49, (R *)-2-(5-Chloro-3-methyl-1H-pyrazol-4-yl)-6-(4-ethyl-3-(hydroxymethyl)-5-oxo-4,5-dihydro-1H-1,2,4-triazol-1-yl)-7-fluoro-4-(prop-1-en-2-yl)-3,4-dihydroisoquinolin-1(2H)-one], for which the IC50 on human DHODH amounted to 10 nM; in the experiment on MOLM-13 cells it was 2.28 nM.
`C=C(C)C1CN(c2cc(C)ccc2F)C(=O)c2cc(F)c(-n3nc(CO)n(CC)c3=O)cc21` (single isomer, unassigned) [Example 40, (R *)-6-(4-Ethyl-3-(hydroxymethyl)-5-oxo-4,5-dihydro-1H-1,2,4-triazol-1-yl)-7-fluoro-2-(2-fluoro-5-methylphenyl)-4-(prop-1-en-2-yl)-3,4-dihydroisoquinolin-1(2H)-one]: the IC50 on human DHODH was found to be 40 nM; in the experiment on MOLM-13 cells, 52.9 nM.
The like results for `C=C(C)[C@@H]1CN(c2c(C)cnc(OC)c2Cl)C(=O)c2cc(F)c(-n3nc(CO)n(CC)c3=O)cc21` (single isomer, unassigned; atropisomer 2) [Example 64, Atropisomer 2, (S*)-2-(3-Chloro-2-methoxy-5-methylpyridin-4-yl)-6-(4-ethyl-3-(hydroxymethyl)-5-oxo-4,5-dihydro-1H-1,2,4-triazol-1-yl)-7-fluoro-4-(prop-1-en-2-yl)-3,4-dihydroisoquinolin-1(2H)-one] were, in that order, 60 nM and 15.3 nM.
For `C=C(C)[C@H]1CN(c2c(C)cnc(OC)c2Cl)C(=O)c2cc(F)c(-n3nc(CO)n(CC)c3=O)cc21` (single isomer, unassigned; atropisomer 1) [Example 63, Atropisomer 1, (R *)-2-(3-Chloro-2-methoxy-5-methylpyridin-4-yl)-6-(4-ethyl-3-(hydroxymethyl)-5-oxo-4,5-dihydro-1H-1,2,4-triazol-1-yl)-7-fluoro-4-(prop-1-en-2-yl)-3,4-dihydroisoquinolin-1(2H)-one], the IC50 was > 100 nM at human DHODH and 359 nM with MOLM-13 cells.
With `CCn1c(CO)nn(-c2cc3c(cc2F)C(=O)N(c2c(F)cncc2Cl)CN3C(C)C)c1=O` [Example 29, 3-(3-Chloro-5-fluoropyridin-4-yl)-7-(4-ethyl-3-(hydroxymethyl)-5-oxo-4,5-dihydro-1H-1,2,4-triazol-1-yl)-6-fluoro-1-isopropyl-2,3-dihydroquinazolin-4(1H)-one], the IC50 on human DHODH was 20 nM; in the experiment with MOLM-13 cells (Homo sapiens, MOLM-13, 72 h), 27.3 nM.
The like results for `CCn1c(CO)nn(-c2ccc3c(c2)C(c2ccccc2)CN(c2cccc(F)c2)C3=O)c1=O` (racemic) [Example 14, Racemic-6-(4-Ethyl-3-(hydroxymethyl)-5-oxo-4,5-dihydro-1H-1,2,4-triazol-1-yl)-2-(3-fluorophenyl)-4-phenyl-3,4-dihydroisoquinolin-1(2H)-one] were, in that order, 1030 nM and 758 nM.
As to `CCC[C@H](C)N1CN(c2c(F)cccc2Cl)C(=O)c2cc(F)c(-n3nc(CO)n(CC)c3=O)nc21` [Example 24, (S)-3-(2-Chloro-6-fluorophenyl)-7-(4-ethyl-3-(hydroxymethyl)-5-oxo-4,5-dihydro-1H-1,2,4-triazol-1-yl)-6-fluoro-1-(pentan-2-yl)-2,3-dihydropyrido[2,3-d]pyrimidin-4(1H)-one], the IC50 at human DHODH is 0.4 nM; in the experiment on MOLM-13 cells (Homo sapiens, MOLM-13, 72 h), < 1.69 nM.
`CCn1c(CO)nn(-c2cc3c(cc2F)C(=O)N(c2nc(OC)ccc2Cl)CN3C(C)C)c1=O` [Example 30, 3-(3-Chloro-6-methoxypyridin-2-yl)-7-(4-ethyl-3-(hydroxymethyl)-5-oxo-4,5-dihydro-1H-1,2,4-triazol-1-yl)-6-fluoro-1-isopropyl-2,3-dihydroquinazolin-4(1H)-one]: the IC50 on human DHODH is 3 nM; with MOLM-13 cells (Homo sapiens, MOLM-13, 72 h), 3.39 nM.
With `C=C(C)C1CN(c2c(C)n[nH]c2Cl)C(=O)c2cc(F)c(-n3nc(CO)n(CC)c3=O)cc21` (single isomer, unassigned) [Example 48, (S*)-2-(5-Chloro-3-methyl-1H-pyrazol-4-yl)-6-(4-ethyl-3-(hydroxymethyl)-5-oxo-4,5-dihydro-1H-1,2,4-triazol-1-yl)-7-fluoro-4-(prop-1-en-2-yl)-3,4-dihydroisoquinolin-1(2H)-one], the results for the IC50 on human DHODH and with MOLM-13 cells were 20 nM and 0.834 nM, respectively.
